The source of these data is ChEMBL document CHEMBL1152450 (J Med Chem, 2009).

One assay has as its system SARS-CoV. Briefly: Antiviral activity against SARS coronavirus in african green monkey Vero E6 cells assessed as inhibition of replication after 48 hrs. In kind it is functional, organism-based, Severe acute respiratory syndrome-related coronavirus. Conditions: Severe acute respiratory syndrome-related coronavirus, Vero, 48 h; read-out: EC50; call rule not given here.
In the case of `CNCc1ccc(C)c(C(=O)N[C@H](C)c2cccc3ccccc23)c1`, the EC50 came to 5.2 µM.

With `Cc1ccc(CN)cc1C(=O)N[C@H](C)c1cccc2ccccc12`, the 50% effective concentration (EC50) was found to be 6 µM.

The same assay, now with this note: vero.
For the compound `Cc1ccc(CNC(=O)OC(C)(C)C)cc1C(=O)N[C@H](C)c1cccc2ccccc12`, the EC50 result was “Not Active”.

With `Cc1ccccc1C(=O)N[C@H](C)c1ccc2ccccc2c1`, the EC50 entry is recorded as “Not Active”.

Regarding `Cc1ccc(N)cc1C(=O)NC(C)(C)c1cccc2ccccc12`, the 50% effective concentration (EC50) entry is recorded as “Not Active”.

Take `Cc1cccc(C(=O)N[C@H](C)c2ccc3ccccc3c2)c1`: the EC50 entry is “Not Active”.

As for `Cc1ccccc1C(=O)NC(C)c1ccc2ccccc2c1` (racemic), the EC50 entry is “Not Active”.

Tested on in a further assay: not listed separately
In words: Inhibition of SARS coronavirus PLpro residues 1541-1855 expressed in Escherichia coli. The arrangement: species or system Severe acute respiratory syndrome-related coronavirus.
Conditions: not given
As to `C[C@@H](NC(=O)c1ccc(NC(=O)OC(C)(C)C)cc1)c1ccc2ccccc2c1`, the IC50 result was “Not Active”.

`Cc1ccccc1C(=O)NC(c1ccccc1)c1ccc2ccccc2c1` (racemic): the IC50 result is “Not Active”.

For the compound `CCC(NC(=O)c1ccccc1C)c1ccc2ccccc2c1` (racemic), the IC50 entry was “Not Active”.

For the compound `C[C@@H](NC(=O)c1ccccc1O)c1ccc2ccccc2c1`, the IC50 result is recorded as “Not Active”.

Usually EC50 stands for the midpoint of the concentration-response curve.
